Data set [1] is described as follows: Loading of anticancer drugs on the radiopaque microspheres. In kind it is physicochemical. The method, then: The tests of loading and controlled release of anticancer drugs were performed on radiopaque microspheres of 100-300 µm sterilized by autoclaving and comprising or not comprising an ionized or ionizable monomer such as methacrylic acid.
The microspheres with methacrylic acid are microspheres from batch 13, the composition of which is given in example 3. The microspheres without methacrylic acid have the same composition as the microspheres from batches L1 and L1Bis described in example 5.
Loading with doxorubicin: the target for loading is 37.5 mg of doxorubicin per ml of microspheres. For this, 3.8 mL of doxorubicin-HCl (Adriblastine®, Pfizer) in solution in water at 2.5 mg/mL is added to 250 µL of wet sediment of microspheres. After mixing by inversion, the suspension is made up to 6 mM with sodium bicarbonate (Lavoisier). Loading is carried out at room temperature and with stirring for one hour. Measurement of the residual amount of doxorubicin (absorbance at 490 nm) present in the supernatants serves for determining the amount of drug loaded on the microspheres.
Loading with irinotecan: the loading target is 50 mg of irinotecan per mL of microspheres. […] After 30 minutes, measurement of the residual amount of irinotecan (absorbance at 370 nm) in the supernatant serves for determining the amount loaded on the microspheres.
Loading with sunitinib: The sediments of the radiopaque microspheres are incubated for 1 h at room temperature in 10 mL of sunitinib in the form of malate (LC Laboratories) at 1 mg/mL in water. […] After stirring for 1 h on a wheel, measurement of the residual amount of sunitinib (absorbance at 405 nm) in the supernatant serves for determining the amount loaded on the microspheres.
Loading with vandetanib: The sediments of the radiopaque microspheres are incubated for 2 h at room temperature in 10 mL of a water/DMSO (1/1) mixture containing 5 mg of vandetanib (LC Laboratories). The residual amount of vandetanib in the supernatants is measured at 254 nm in order to calculate the amount loaded on the microspheres. […]

Data set [2] is described as follows: Release in vitro of anticancer drugs from the radiopaque microspheres. To be noted: for Time for 50% release / Time for complete release / % elution at 1 h: microspheres with methacrylic acid, 37° C., 150 rpm; for % elution at 1 h: pH 7.4 buffer. In kind it is physicochemical. As for the experimental part:
To study the release of doxorubicin from the microspheres, the sediments are washed in 10 mL of water, before adding 50 mL of buffer 50 mM Tris-HCl, 0.9% NaCl, pH 7.4. Incubation takes place at 37° C. with stirring. The release of doxorubicin is measured at different times at 490 nm.
To study the release of irinotecan, the microspheres are washed in 10 mL of water, and then 50 mL of PBS (10 mM Na2HPO4, 1.8 mM KH2PO4, 138 mM NaCl, 2.7 mM KCl, pH 7.4) equilibrated at 37° C. is added. The release of the drug over time is measured by reading the absorbance at 370 nm.
To study the release of sunitinib, the microspheres are washed in 10 mL of water, and then 50 mL of PBS equilibrated at 37° C. is added. The release of the drug over time is measured by reading the absorbance at 405 nm.
To study the release of vandetanib, the microspheres are washed in 10 mL of water, and then 50 mL of PBS equilibrated at 37° C. is added. The release of the drug over time is measured by reading the absorbance at 254 nm.

Setting [3] is: 100-300 µm radiopaque microspheres with methacrylic acid (batch 13).

With `CCc1c2c(nc3ccc(OC(=O)N4CCC(N5CCCCC5)CC4)cc13)-c1cc3c(c(=O)n1C2)COC(=O)[C@]3(O)CC` [Irinotecan, irinotecan], the “Loading (mg of drug / mL of wet sediment)” value in data set [1] (setting [3]) is 46 mg of drug / mL of wet sediment. For the same compound, in data set [2], the “Time for 50% release” value amounted to 1 h, the “Time for complete release” value was found to be 1 days and the “% elution at 1 h” value is on record as 50%.
For `COc1cccc2c1C(=O)c1c(O)c3c(c(O)c1C2=O)C[C@@](O)(C(=O)CO)C[C@@H]3O[C@H]1C[C@H](N)[C@H](O)[C@H](C)O1` [Doxorubicin, doxorubicin], in data set [1] (setting [3]), the “Loading (mg of drug / mL of wet sediment)” value was 36.8 mg of drug / mL of wet sediment. In data set [1] (100-300 µm radiopaque microspheres without methacrylic acid), the “Loading (mg of drug / mL of wet sediment)” value was 29.8 mg of drug / mL of wet sediment. In data set [2] (compared with irinotecan), the “Release (elution in PBS), in words” value is “slower, being spread over several days”. Also, in data set [2], the “Time for 50% release” value came to 24 h, the “Time for complete release” value came to 1 week and the “% elution at 1 h” value was determined as 26%.

The values above are taken from patent US20230285601A1, “NON DEGRADABLE RADIO-OPAQUE EMBOLISATION MICROSPHERE” (GUERBET, priority 2019, published 2023).
